Laboratory results reported in patent US9249453B2, “Method for identifying a malodor inhibitor” (Kao Corporation, priority 2011, dated 2016).
Like-named read-outs stand apart in the source and are kept apart here.

Experiments:
Type in all cases: cell-based
OR2W1 = biological target: T1, OR2W1 (Homo sapiens, UniProt Q9Y3N9); experiment: Luciferase reporter assay: suppression of the skatole response of OR2W1 expressed in HEK293 cells; conditions: read-out: Inhibition rate 2W1
T1 construct: expressed in transfected cells; host or cells: HEK293
T1 sequence (Q9Y3N9 1-320): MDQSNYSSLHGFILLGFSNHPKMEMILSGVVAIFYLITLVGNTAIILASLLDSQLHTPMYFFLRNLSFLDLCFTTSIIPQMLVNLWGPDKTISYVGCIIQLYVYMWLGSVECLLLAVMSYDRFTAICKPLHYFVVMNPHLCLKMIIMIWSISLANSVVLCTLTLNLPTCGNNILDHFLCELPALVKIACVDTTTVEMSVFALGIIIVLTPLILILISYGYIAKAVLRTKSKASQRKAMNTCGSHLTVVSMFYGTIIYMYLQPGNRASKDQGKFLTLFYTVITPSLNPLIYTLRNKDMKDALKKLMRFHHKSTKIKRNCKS
Protocol: (§1) A reaction solution having a composition shown in Table 1 was prepared on a clean bench, and left to stand for 15 minutes. The solution was dispensed to each well of a 96-well plate (BD). Subsequently, HEK293 cells (100 μL, 3×10^5 cells/cm^2) were seeded in each well and cultured for 24 hours in an incubator at 37° C. and under 5% CO2 conditions.
(§2) The olfactory receptor expressed in HEK293 cells activates adenylate cyclase with the aid of Gαs present in cells, to thereby increase intracellular cAMP level. In this study, odorant response was measured by a luciferase reporter gene assay which monitored the intracellular cAMP level as the luminescence value derived from a firefly luciferase gene (fluc2P-CRE-hygro). Also, a Renilla luciferase gene fused downstream of a CMV promoter (hRluc-CMV) was also transfected to HEK293 cells as an internal standard to correct errors in gene transfer efficiency and number of cells.
(§3) Cell culturing was performed for four hours in a CO2-incubator, whereby the luciferase gene sufficiently expressed in the cells. Luciferase activity was measured by means of a Dual-Glo™ luciferase assay system (promega) according to an instruction manual thereof. The luminescence value derived from firefly luciferase induced by odorant stimulation was divided by the luminescence value of cells which were not stimulated with odorants. The thus-obtained—called “fold increase”—was employed as an index for response intensity.
(§4) The response inhibition rate of a test substance was calculated as follows. Firstly, luminescence value derived from firefly luciferase induced by stimulation with skatole (X), and luminescence value in cells which expressed the same receptor but were not stimulated with skatole (Y) were determined. By subtracting Y from X, the receptor activity by stimulation with skatole alone (X−Y) was determined. Similarly, the luminescence value induced by stimulation with a mixture of skatole and a test substance (Z) was determined. Through subtracting Y (the luminescence value in cells which expressed the same receptor but were not stimulated with skatole) from Z, the receptor activity (Z−Y) by stimulation with a mixture of skatole and the test substance was obtained. From the thus-obtained receptor activity by stimulation with skatole alone (X−Y) and the receptor activity in the presence of a test material (Z−Y), the response inhibition rate of the test substance was calculated by the following equation: Inhibition rate (%)={1−(Z−Y)/(X−Y)}×100.
(§5) In each case, multiple independent experiments were performed in duplicate, and the average of each experiment was used.

OR5P3 = biological target: T2, OR5P3 (Homo sapiens, UniProt Q8WZ94); experiment: Luciferase reporter assay: suppression of the skatole response of OR5P3 expressed in HEK293 cells; conditions: test substance 100 μM mixed with 300 μM skatole, HEK293 cells expressing OR5P3
T2 construct: expressed in transfected cells; host or cells: HEK293
T2 sequence (Q8WZ94 1-311): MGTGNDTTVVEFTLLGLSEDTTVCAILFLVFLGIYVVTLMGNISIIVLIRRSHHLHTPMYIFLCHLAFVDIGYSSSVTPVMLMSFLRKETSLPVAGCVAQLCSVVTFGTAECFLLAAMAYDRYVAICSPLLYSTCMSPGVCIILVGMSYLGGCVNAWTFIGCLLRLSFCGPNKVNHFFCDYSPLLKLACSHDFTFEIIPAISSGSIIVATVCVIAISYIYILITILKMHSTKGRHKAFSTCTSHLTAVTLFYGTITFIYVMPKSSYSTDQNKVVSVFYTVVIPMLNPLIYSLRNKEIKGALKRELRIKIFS
Protocol: as §1, §2, §3, §4, §5

OR8H1 = biological target: T3, OR8H1 (Homo sapiens, UniProt Q8NGG4); experiment: Luciferase reporter assay: suppression of the skatole response of OR8H1 expressed in HEK293 cells; conditions: read-out: Inhibition rate 8H1
T3 construct: expressed in transfected cells; host or cells: HEK293
T3 sequence (Q8NGG4 1-311): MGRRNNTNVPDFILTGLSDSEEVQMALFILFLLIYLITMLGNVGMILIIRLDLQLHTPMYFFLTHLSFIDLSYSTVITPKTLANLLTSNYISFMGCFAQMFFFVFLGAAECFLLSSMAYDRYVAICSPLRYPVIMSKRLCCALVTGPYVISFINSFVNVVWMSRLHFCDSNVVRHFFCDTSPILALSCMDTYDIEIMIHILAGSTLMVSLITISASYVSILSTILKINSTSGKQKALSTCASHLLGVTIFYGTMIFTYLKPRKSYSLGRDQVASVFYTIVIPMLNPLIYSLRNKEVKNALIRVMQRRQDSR
Protocol: as §1, §2, §3, §4, §5

OR5K1 = biological target: T4, OR5K1 (Homo sapiens, UniProt Q8NHB7); experiment: Luciferase reporter assay: suppression of the skatole response of OR5K1 expressed in HEK293 cells; conditions: read-out: Inhibition rate 5K1
T4 construct: expressed in transfected cells; host or cells: HEK293
T4 sequence (Q8NHB7 1-308): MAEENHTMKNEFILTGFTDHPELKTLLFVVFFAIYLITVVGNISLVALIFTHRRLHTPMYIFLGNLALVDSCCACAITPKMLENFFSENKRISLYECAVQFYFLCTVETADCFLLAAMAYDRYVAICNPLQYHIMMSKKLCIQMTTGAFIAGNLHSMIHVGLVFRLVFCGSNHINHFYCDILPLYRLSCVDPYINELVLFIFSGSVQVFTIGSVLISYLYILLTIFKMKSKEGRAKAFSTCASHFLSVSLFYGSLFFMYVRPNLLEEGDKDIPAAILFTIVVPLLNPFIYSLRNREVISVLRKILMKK
Protocol: as §1, §2, §3, §4, §5

[1] = 4 h, test substance 100 μM mixed with 300 μM skatole, HEK293 cells expressing OR2W1
[2] = 4 h, test substance 100 μM mixed with 300 μM skatole, HEK293 cells expressing OR8H1
[3] = 4 h, test substance 100 μM mixed with 300 μM skatole, HEK293 cells expressing OR5K1

Structure (SMILES) | inhibition at 100 µM (OR2W1; [1]) [%] | Inhibition rate 5P3 (OR5P3) | inhibition at 100 µM (OR8H1; [2]) [%] | inhibition at 100 µM (OR5K1; [3]) [%] | inhibition at 100 µM (OR2W1; HEK293, 4 h) [%] | inhibition at 100 µM (OR8H1; HEK293, 4 h) [%] | inhibition at 100 µM (OR5K1; HEK293, 4 h) [%]
CC(=O)C1=C(C)C2CC3(C1)C(C)CCC3C2(C)C (stereo not drawn) [acetylcedrene, 1-(2,3,4,7,8,8a-Hexahydro-3,6,8,8-tetramethyl-1H-3a,7-methanoazulen-5-yl)-ethanone] | > 80 | A (A >80%) | > 80 | > 80 | – | – | –
CC(CCO)CCc1ccccc1 (stereo not drawn) [phenylhexanol, 3-Methyl-5-phenyl-1-pentanol] | < 20 | A (A >80%) | < 20 | < 20 | – | – | –
CC=CC(=O)C1C(C)C=CCC1(C)C (stereo not drawn) [δ-damascones, 1-(2,6,6-Trimethyl-3-cyclohexenyl)-2-buten-1-one] | 20 to 50 | C (C >20%) | 20 to 50 | 20 to 50 | – | – | –
CC(C)(C)C1CCC(O)CC1 (stereo not drawn) [p-tert-butlcyclohexanol, 4-(1,1-Dimethylethyl)-cyclohexanol] | < 20 | A (A >80%) | > 80 | > 80 | – | – | –
CCC(O)COC1CCCCC1C(C)(C)C (stereo not drawn) [Ambercore, 1-(2-tert-Butylcyclohexyloxy)-2-butanol] | > 80 | B (B >50%) | > 80 | 50 to 80 | – | – | –
CC(CC=O)CCCC(C)(C)O (stereo not drawn) [hydroxycitronellal, 7-Hydroxy-3,7-dimethyl-octanal] | 20 to 50 | B (B >50%) | 20 to 50 | < 20 | – | – | –
O=C1CCCCCCC/C=C\CCCCCCC1 [civetone, (Z)-Cycloheptadeca-9-en-1-one] | – | B (B >50%) | – | – | > 80 | 50 to 80 | 50 to 80
CC1(C)CCCC2=C1CC(C=O)CC2 (stereo not drawn) [Cyclemone A, 1,2,3,4,5,6,7,8-octahydro-8,8-dimethyl-2-naphthaldehyde] | 50 to 80 | C (C >20%) | 20 to 50 | 20 to 50 | – | – | –
CC(C)=CCCC(C)CC=O (stereo not drawn) [citronellal, 3,7-Dimethyl-6-octenal] | 20 to 50 | C (C >20%) | < 20 | 20 to 50 | – | – | –
C=C1CCCC(C)(C)C1C=CC(=O)CC (stereo not drawn) [γ-methylionone, 1-(2,2-Dimethyl-6-methylencyclohexyl)-1-penten-3-one] | 50 to 80 | C (C >20%) | 50 to 80 | 50 to 80 | – | – | –
CC12CCC(C1)C(C)(C)C2O (stereo not drawn) [fenchyl alcohol, 1,3,3-trimethyl-bicyclo[2.2.1]heptan-2-ol] | 20 to 50 | C (C >20%) | 20 to 50 | < 20 | – | – | –
CC(C)=CCC/C(C)=C/CO [geraniol, 2-trans-3,7-Dimethyl-2,6-octadien-1-ol] | < 20 | B (B >50%) | 50 to 80 | 20 to 50 | – | – | –
CC/C=C\CC1=C(C)CCC1=O [cis-jasmone, (Z)-2-(2-Pentenyl)-3-methyl-2-cyclopenten-1-one] | 50 to 80 | C (C >20%) | 20 to 50 | < 20 | – | – | –
CC1C/C=C/CCCCCCCCCC(=O)C1 (stereo not drawn) [Muscenone delta, (5E)-3-methylcyclopentadec-5-en-1-one] | 20 to 50 | C (C >20%) | 20 to 50 | < 20 | – | – | –
CCCCCCCC1CCC(=O)O1 (stereo not drawn) [γ-undecalactone, 5-Heptyl dihydro-2(3H)-furanone] | 50 to 80 | B (B >50%) | 50 to 80 | 50 to 80 | – | – | –
O=C1CCCCCCC=CCCCCCCC1 [globanone, 8-Cyclohexadecen-1-one] | > 80 | C (C >20%) | < 20 | < 20 | – | – | –
CC(C)CCCC(C)CCO (stereo not drawn) [tetrahydrogenol, 3,7-Dimethyl-1-octanol] | 20 to 50 | B (B >50%) | > 80 | 50 to 80 | – | – | –
Cc1ccc(C(C)C)c(O)c1 [thymol, 5-Methyl-2-(1-methylethyl)-phenol] | 20 to 50 | A (A >80%) | 20 to 50 | > 80 | – | – | –
CC1COCc2cc3c(cc21)C(C)(C)C(C)C3(C)C (stereo not drawn) [Galaxolide, 1,3,4,6,7,8-Hexahydro-4,6,6,7,8,8-hexamethylcyclopenta-γ-2-benzopyran] | 50 to 80 | C (C >20%) | > 80 | > 80 | – | – | –
COC(C)(C)CCCC(C)CC=O (stereo not drawn) [methoxycitronellal, 7-Methoxy-3,7-dimethyl-octanal] | 20 to 50 | C (C >20%) | 20 to 50 | 50 to 80 | – | – | –
CC1=CCC(C=CC(C)C(C)O)C1(C)C (stereo not drawn) [Ebanol, 3-Methyl-5-(2,2,3-trimethyl-3-cyclopenten-1-yl)-4-penten-2-ol] | 50 to 80 | A (A >80%) | 50 to 80 | > 80 | – | – | –
